Columns and labels:
Cbl-b [1] = target: T1, Cbl-b (Homo sapiens, UniProt Q13191); assay: Cbl-b inhibition assay (Cbl-b activity assay, FRET, Biological Example 1; 100 mM NaCl, 60 nM Src kinase); format: biochemical; conditions: upper bound stated in text lists; read-out: IC50 values in the Cbl-b inhibition assay of Biological Example 1
Summary of the method: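 FRET read-out: loss of signal marks inhibition. Mix = biotin-Avi-Cbl-b (N-term), Src kinase, UbcH5B-Ub(Bodipy-FL, irreversible conjugate), streptavidin-Tb, assay buffer.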

T-cell [2] = assay: IL-2 secretion from T-cells co-stimulated with anti-CD3 and anti-CD28 antibody (Biological Example 2); format: cell-based, human; conditions: Homo sapiens, T-cell, read-out: IL-2 secretion Anti-CD3/Anti-CD28 stimulation; for fold induction at 0.3 µM: 0.3 μM Cbl-b inhibitor; for fold induction at 1 µM: 1 μM Cbl-b inhibitor; for fold induction at 4 µM: 4 μM Cbl-b inhibitor
Excerpt: (§1) Methods for experimentally determining increased T-cell activation, increased T-cell proliferation, decreased T-cell exhaustion, and/or decreased T-cell tolerance are well known in the art.
(§2) Modulation of activity of an immune cell, such as a T-cell, a B cell or a NK cell can be measured by determining a baseline value for a parameter of interest (e.g., cytokine secretion). […] A reference value then is obtained for T-cell activation after contacting or administering said Cbl-b inhibitor. The reference value is compared to the baseline value in order to determine the amount of T-cell activation due to contact or administration of the Cbl-b inhibitor or composition thereof. […] Immune cell activation can be assessed by measuring biological markers of activation such as increased cytokine secretion, increased cell surface expression of activation markers (e.g., cell surface markers), or increased phosphorylation of proteins in a downstream signaling pathway. The fold over baseline value that indicates immune cell activation can be determined for the parameter being tested and the conditions under which the immune cell were treated. For example, for measuring T-cell activation, a baseline value can be obtained from T-cells stimulated with anti-CD3 antibody in combination with anti-CD28 antibody, wherein the cells are not incubated with a Cbl-b inhibitor. […] A positive response for immune cell activation can then be determined by the obtained reference value. […]

T-cell [3] = assay: IL-2 secretion from T-cells stimulated with anti-CD3 antibody alone (Biological Example 2); format: cell-based, human; conditions: T-cell, read-out: IL-2 secretion Anti-CD3 stimulation; for fold induction at 1 µM: 1 μM Cbl-b inhibitor; for fold induction at 8 µM: 8 μM Cbl-b inhibitor
Excerpt: as §1
(§3) Modulation of activity of an immune cell, such as a T-cell, a B cell or a NK cell can be measured by determining a baseline value for a parameter of interest (e.g., cytokine secretion). […] A reference value then is obtained for T-cell activation after contacting or administering said Cbl-b inhibitor. The reference value is compared to the baseline value in order to determine the amount of T-cell activation due to contact or administration of the Cbl-b inhibitor or composition thereof. […] Immune cell activation can be assessed by measuring biological markers of activation such as increased cytokine secretion, increased cell surface expression of activation markers (e.g., cell surface markers), or increased phosphorylation of proteins in a downstream signaling pathway. The fold over baseline value that indicates immune cell activation can be determined for the parameter being tested and the conditions under which the immune cell were treated. For example, for measuring T-cell activation, a baseline value can be obtained from T-cells stimulated with anti-CD3 antibody in combination with anti-CD28 antibody, wherein the cells are not incubated with a Cbl-b inhibitor. […] A positive response for immune cell activation can then be determined by the obtained reference value.
(§4) In some embodiments, a baseline value can be obtained from T-cells stimulated with anti-CD3 antibody alone, wherein the cells are not incubated with a Cbl-b inhibitor. In some embodiments, a positive response for T-cell activation as measured by cytokine secretion (e.g., IL-2 secretion) by T-cells stimulated with anti-CD3 antibody alone in the presence of a Cbl-b inhibitor is at least 0.1-fold over the baseline value for cytokine secretion (e.g., IL-2 secretion) obtained from T-cells stimulated with anti-CD3 antibody alone in the absence of a Cbl-b inhibitor. In some embodiments, a positive response for T-cell activation as measured by surface marker expression (e.g., CD25 surface marker staining) by T-cells stimulated with anti-CD3 antibody alone in the presence of a Cbl-b inhibitor is at least 0.6-fold over the baseline value for surface marker expression (e.g., CD25 surface marker staining) obtained from T-cells stimulated with anti-CD3 antibody alone in the absence of a Cbl-b inhibitor.

T-cell [4] = assay: CD25 cell surface staining on T-cells co-stimulated with anti-CD3 and anti-CD28 antibody (Biological Example 2); format: cell-based, human; conditions: Homo sapiens, T-cell, read-out: CD25 staining Anti-CD3/Anti-CD28 stimulation; for fold induction at 0.3 µM: 0.3 μM Cbl-b inhibitor; for fold induction at 1 µM: 1 μM Cbl-b inhibitor; for fold induction at 4 µM: 4 μM Cbl-b inhibitor
Excerpt: as §1, §2

T-cell [5] = assay: CD25 cell surface staining on T-cells stimulated with anti-CD3 antibody alone (Biological Example 2); format: cell-based, human; conditions: T-cell, read-out: CD25 staining Anti-CD3 stimulation; for fold induction at 1 µM: 1 μM Cbl-b inhibitor; for fold induction at 8 µM: 8 μM Cbl-b inhibitor
Excerpt: as §1, §3, §4

Cbl-b [6] = target: T1, Cbl-b; assay: Cbl-b activity assay (Cbl-b inhibition assay), TR-FRET of Cbl-b interaction with UbcH5B-Ub; format: biochemical; conditions: assay buffer with 100 mM NaCl, 60 nM Src kinase; read-out: Cbl-b activity IC50
Summary of the method: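 UbcH5B (C85K) conjugated to N-terminally Bodipy-Fluorescein-labeled ubiquitin served as the fluorescent partner. After compound preincubation, Src kinase (60 nM) with 1 mM ATP and 5 mM MgCl2 (final) was added for 1.5 h, followed by a further 1 h incubation. Some values were obtained with 50 mM NaCl and 30 nM Src.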

[7] = fold change over baseline (anti-CD3/anti-CD28 stimulated T-cells without inhibitor)
[8] = Homo sapiens, fold change over baseline (anti-CD3/anti-CD28 stimulated T-cells without inhibitor)
[9] = fold change over baseline, primary human total T-cells

T1 sequence (Q13191 36-427): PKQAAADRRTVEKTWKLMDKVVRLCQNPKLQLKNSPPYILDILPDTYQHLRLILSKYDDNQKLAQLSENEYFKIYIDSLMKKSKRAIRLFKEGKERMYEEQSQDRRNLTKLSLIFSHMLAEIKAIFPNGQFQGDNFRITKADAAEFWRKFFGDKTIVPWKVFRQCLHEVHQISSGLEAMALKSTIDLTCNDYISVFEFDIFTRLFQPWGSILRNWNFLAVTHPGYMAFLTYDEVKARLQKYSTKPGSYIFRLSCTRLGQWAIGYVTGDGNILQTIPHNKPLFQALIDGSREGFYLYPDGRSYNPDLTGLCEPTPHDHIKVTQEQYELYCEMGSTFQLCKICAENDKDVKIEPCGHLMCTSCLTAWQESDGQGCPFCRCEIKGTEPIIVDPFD

Row | Structure (SMILES) | IC50 (Cbl-b [1]) | fold induction at 0.3 µM (T-cell [2]; [7]) | fold induction at 1 µM (T-cell [2]; [7]) | fold induction at 1 µM (T-cell [3]; [8]) | fold induction at 0.3 µM (T-cell [4]; [7]) | fold induction at 1 µM (T-cell [4]; [7]) | fold induction at 1 µM (T-cell [5]; [8]) | IC50 (Cbl-b [6]) | fold induction at 0.3 µM (T-cell [2]; [9]) | fold induction at 1 µM (T-cell [2]; [9]) | fold induction at 4 µM (T-cell [2]; [9]) | fold induction at 1 µM (T-cell [3]; [9]) | fold induction at 8 µM (T-cell [3]; [9]) | fold induction at 0.3 µM (T-cell [4]; [9]) | fold induction at 1 µM (T-cell [4]; [9]) | fold induction at 4 µM (T-cell [4]; [9]) | fold induction at 1 µM (T-cell [5]; [9]) | fold induction at 8 µM (T-cell [5]; [9])
1 | Cn1cnnc1CC1(c2cccc(N3Cc4c(cc(CN5CCC6(CC6)C5)cc4C(F)(F)F)C3=O)c2)CCC1 [Example 695, 6-((5-azaspiro[2.4]heptan-5-yl)methyl)-2-(3-(1-((4-methyl-4H-1,2,4-triazol-3-yl)methyl)cyclobutyl)phenyl)-4-(trifluoromethyl)isoindolin-1-one] | ≤ 100 nM | > 7.5 | > 7.5 | > 0.201 | 1.31 to 1.5 | 1.31 to 1.5 | > 1 | < 100 nM | – | – | – | – | – | – | – | – | – | –
2 | CC(c1cc2c(c(C3CC3)n1)CN(c1cccc(C3(Cc4nncn4C)COC3)c1)C2=O)N1CC2(CC2)C1 (centres unmarked) [Example 586, 6-(1-(5-Azaspiro[2.3]hexan-5-yl)ethyl)-4-cyclopropyl-2-(3-(3-((4-methyl-4H-1,2,4-triazol-3-yl)methyl)oxetan-3-yl)phenyl)-2,3-dihydro-1H-pyrrolo[3,4-c]pyridin-1-one] | ≤ 100 nM | 1.01 to 2.5 | 2.51 to 5 | < 0.05 | 1.01 to 1.3 | 1.01 to 1.3 | 0.601 to 0.8 | < 100 nM | – | – | – | – | – | – | – | – | – | –
3 | C[C@H](Cc1nncn1C)c1cc(N[C@H]2CC[C@H]2O)nc(N2Cc3c(cccc3C(F)(F)F)C2=O)c1 [Example 689b, 2-(6-(((1S,2R)-2-hydroxycyclobutyl)amino)-4-((R)-1-(4-methyl-4H-1,2,4-triazol-3-yl)propan-2-yl)pyridin-2-yl)-4-(trifluoromethyl)isoindolin-1-one] | ≤ 1000 nM | 1.01 to 2.5 | 1.01 to 2.5 | < 0.05 | 1.01 to 1.3 | 1.01 to 1.3 | < 0.6 | 301 to 1000 nM | – | – | – | – | – | – | – | – | – | –
4 | Cn1cnnc1CC(c1cccc(N2Cc3c(cccc3C(F)(F)F)C2=O)c1)C(F)(F)F (centres unmarked) [Compound 289, 2-(3-(1,1,1-Trifluoro-3-(4-methyl-4H-1,2,4-triazol-3-yl)propan-2-yl)phenyl)-4-(trifluoromethyl)isoindolin-1-one] | ≤ 500 nM | – | – | – | – | – | – | 301 to 1000 nM | < 1 | < 1 | 1.01 to 2.5 | 0.101 to 0.15 | 0.151 to 0.2 | 1.01 to 1.3 | 1.01 to 1.3 | 1.01 to 1.3 | 0.801 to 1 | 0.801 to 1
5 | Cc1cc(C(=O)Nc2cccc(C3(Cc4nncn4C)COC3)c2)nc(C2CCC2)n1 [Compound 340, 2-cyclobutyl-6-methyl-N-(3-(3-((4-methyl-4H-1,2,4-triazol-3-yl)methyl)oxetan-3-yl)phenyl)pyrimidine-4-carboxamide] | ≤ 100 nM | – | – | – | – | – | – | < 100 nM | 1.01 to 2.5 | 5 to 7.5 | > 7.5 | 0.151 to 0.2 | > 0.201 | 1.01 to 1.3 | 1.01 to 1.3 | 1.31 to 1.5 | 0.801 to 1 | > 1
6 | Cn1cnnc1[C@H](F)C1(c2cccc(N3Cc4c(cc(CN5CCCCC5)cc4C(F)(F)F)C3=O)c2)COC1 [Example 674b, (R)-2-(3-(3-(fluoro(4-methyl-4H-1,2,4-triazol-3-yl)methyl)oxetan-3-yl)phenyl)-6-(piperidin-1-ylmethyl)-4-(trifluoromethyl)isoindolin-1-one] | ≤ 100 nM | > 7.5 | > 7.5 | > 0.201 | 1.01 to 1.3 | 1.01 to 1.3 | > 1 | < 100 nM | – | – | – | – | – | – | – | – | – | –
7 | Cn1cnnc1CC1(c2cccc(N3Cc4c(cc(CN5CCOC6(CCC6)C5)cc4C(F)(F)F)C3=O)c2)COC1 [Example 703, 6-((5-oxa-8-azaspiro[3.5]nonan-8-yl)methyl)-2-(3-(3-((4-methyl-4H-1,2,4-triazol-3-yl)methyl)oxetan-3-yl)phenyl)-4-(trifluoromethyl)isoindolin-1-one] | ≤ 100 nM | > 7.5 | > 7.5 | > 0.201 | 1.01 to 1.3 | 1.01 to 1.3 | > 1 | < 100 nM | – | – | – | – | – | – | – | – | – | –
8 | CN1CCN(c2cc(C(=O)Nc3cccc(C4(Cc5nncn5C)COC4)c3)nc(C3CC3)n2)CC1 [Compound 348, 2-Cyclopropyl-N-(3-(3-((4-methyl-4H-1,2,4-triazol-3-yl)methyl)oxetan-3-yl)phenyl)-6-(4-methylpiperazin-1-yl)pyrimidine-4-carboxamide] | ≤ 100 nM | – | – | – | – | – | – | < 100 nM | 2.51 to 5 | > 7.5 | – | > 0.201 | – | 1.31 to 1.5 | 1.31 to 1.5 | – | 0.801 to 1 | –
9 | Cc1cc(C(=O)Nc2cc(C3CC3)cc(C3(Cc4nncn4C)COC3)c2)nc(C2CC2)n1 [Example 698, 2-cyclopropyl-N-(3-cyclopropyl-5-(3-((4-methyl-4H-1,2,4-triazol-3-yl)methyl)oxetan-3-yl)phenyl)-6-methylpyrimidine-4-carboxamide] | ≤ 100 nM | 2.51 to 5 | > 7.5 | > 0.201 | 1.01 to 1.3 | 1.31 to 1.5 | > 1 | < 100 nM | – | – | – | – | – | – | – | – | – | –
